Measured values from US11220500B2, “Crystalline form of Valbenazine dibesylate” (Apotex Inc., priority 2018, dated 2022).
In brackets after ≈: the same amount, converted by molar mass. Counter-ions that a name gives are not always drawn. Like-named read-outs stand apart in the source and are kept apart here.

Tests used:
[1] = Comparative solubility of Valbenazine forms in buffer solutions (pH 1.2 to 6.8) at 37° C., HPLC; details: equilibrated 24 hours
Protocol: (§1) The solubility of Valbenazine free base, Valbenazine ditosylate and Valbenazine dibesylate were measured in buffer solutions (pH 1.2 to 6.8) in a temperature-controlled water bath at 37° C. with stirring using magnetic stir bars at 325 rpm (rotations per minute). Each Valbenazine sample was weighed and transferred into a 20 mL vial and then 10 mL of buffer was added. The samples were shaken for 1 minute. If all sample dissolved, more sample was added until a saturated solution was obtained. The samples were then equilibrated at 37° C. with stirring using magnetic stir bars at 325 rpm for 24 hours. After equilibration, samples were filtered through 0.45 μm PVDF filters and further diluted with a methanol/water (60/40 v/v) solution. Samples were analyzed by HPLC against known concentrations of standards. The pH values of the solutions were measured after completion of testing.

[2] = 24 h
Protocol: as §1

[3] = physchem; details: 37 °C, thermodynamic from solid, Solubility expressed as Valbenazine free base
Protocol: as §1

[4] = Form stability by PXRD of uncapped samples in a 27° C./60% RH stability chamber; assay type: physicochemical
Protocol: Valbenazine dibesylate Form APO-I can be characterized by a PXRD diffractogram comprising, among other peaks, characteristic peaks, expressed in degrees 2θ (±0.2°), at 6.3°, 9.8° and 15.6°. Preferably, the PXRD diffractogram further comprises at least three peaks, expressed in degrees 2θ (±0.2°), selected from the group consisting of 5.3°, 7.7°, 8.5°, 12.5°, 14.0°, 16.8°, 17.1°, 17.8°, 18.6° and 19.7°. More preferably, the PXRD diffractogram further comprises peaks, expressed in degrees 2θ (±0.2°), at 5.3°, 7.7°, 8.5°, 12.5°, 14.0°, 16.8°, 17.1°, 17.8°, 18.6° and 19.7°.
Data were acquired on a PANanalytical X'Pert Pro MPD diffractometer with fixed divergence slits and an X'Celerator detector. The diffractometer was configured in Bragg-Brentano geometry; data was collected over a 2θ range of 3° to 40° using CuKα radiation at a power of 40 mA and 45 kV. CuKβ radiation was removed using a divergent beam nickel filter. A step size of 0.017°, and a step time of 40 seconds, was used. Raw data were evaluated using X'Pert High Score Plus. Samples were rotated to reduce preferred orientation effects. Samples were lightly ground prior to analysis.

Solubility expressed as Valbenazine free base ([1]; buffer pH 1.2, 37° C.) [mg/mL]	Solubility expressed as Valbenazine free base ([1]; buffer pH 4.5, 37° C.) [mg/mL]	Solubility expressed as Valbenazine free base ([1]; buffer pH 6.8, 37° C.) [mg/mL]	Solubility expressed as Valbenazine free base ([2]; pH 4.5) [mg/mL]	Solubility expressed as Valbenazine free base ([2]; pH 6.8) [mg/mL]	solubility at 24 h ([3]; pH 1.2, simulated gastric fluid) [mg/mL]	Difference of aqueous solubility from that of Valbenazine ditosylate of the approved drug product [2] [% units]	Solubility expressed as Valbenazine free base ([2]; pH 1.2) [mg/mL]	Form stability ([4]; open exposure to 27° C./60% RH for at least 5 months)	Change in the crystalline form (PXRD) ([4]; uncapped samples, 27° C./60% RH stability chamber, at least 20 weeks)	solubility at 24 h ([3]; pH 4.5, aqueous buffer) [mg/mL]	Compound
20.9	17.7	7.6									Valbenazine ditosylate [Ditosylate salt]
			21.6 (≈ 51.6 mM)	1.2 (≈ 2.87 mM)	21.3 (≈ 50.9 mM)						COc1cc2c(cc1OC)[C@H]1C[C@@H](OC(=O)[C@@H](N)C(C)C)[C@H](CC(C)C)CN1CC2 [Free base, (2R,3R,11bR)-1,3,4,6,7,11b-hexahydro-9,10-dimethoxy-3-(2-methylpropyl)-2H-benzo[a]quinolizin-2-yl-L-valine ester]
				8.1		≤ 10	22.4	exhibits form stability	no change in the crystalline form	18.5	COc1cc2c(cc1OC)[C@H]1C[C@@H](OC(=O)[C@@H](N)C(C)C)[C@H](CC(C)C)CN1CC2 [Dibesylate salt, Valbenazine dibesylate]
